{"source": "patent US9248109B2", "about": "“High penetration prodrug compositions of peptides and peptide-related compounds” (priority 2009, dated 2016)", "key": {"[1]": {"experiment": "In vitro penetration rate across isolated human skin in modified Franz cells (HPLC)", "settings": "parent drugs; at lowest detectable value, considered not detectable", "description": "The penetration rates of HPPs/HPCs and their parent drugs through human skin were measured in vitro by modified Franz cells. The Franz cells had two chambers, the top sample chamber and the bottom receiving chamber. The human skin tissue (360-400 p.m thick) that separated the top and the receiving chambers was isolated from the anterior or posterior thigh areas.\nA compound tested (2 mL, 20% in 0.2 M phosphate buffer, pH 7.4) was added to the sample chamber of a Franz cell. The receiving chamber contains 10 ml of pH 7.4 phosphate buffer (0.2 M) which was stirred at 600 rpm. The amount of the tested compound penetrating the skin was determined by high-performance liquid chromatography (HPLC) method."}, "mice": {"test_system": "mice", "experiment": "Acetic acid writhing inhibition in mice, transdermal", "format": "in vivo, mouse", "settings": "10 mg/kg transdermally to the neck, acetic acid i.p. 30 minutes later; for rate of writhing inhibition (%): based on the control group; for No. of Writhings: control 35.0", "protocol": "The number of writhings that occurred when mice were administered an acetic acid solution intraperitoneally were counted, and the rate of inhibition based on the control group was calculated. […] 30 minutes later, acetic acid solution was administered. The group A was the control group."}, "Osborne-Mendel rats": {"test_system": "Osborne-Mendel rats", "settings": "injected intraperitoneally, rats starved overnight, high-fat diet; cited from earlier work"}, "rats": {"test_system": "rats", "experiment": "Solicitation and copulation of rats treated transdermally with HPPs/HPCs of Melanocortin II", "format": "in vivo, rat", "settings": "for increase in copulation comparing to the control group / increase in solicitation comparing to the control group: 2 mg/kg once per day for 5 days; for Increased Copulation / Increased Solicitation: 2 mg/kg on the back once per day for 5 days, control = 1", "protocol": "The same dosage of cyclo(1,6)-Ac-Nle-Asp-His-Phe-Arg(NO2)-Trp-Lys-OCH2CH2N(CH2CH3)2.HCl(SEQ ID NO: 201) (peptide B) was applied to the back of another group of male rats (Group B-1, 30 rats). Rats of a control group were not treated with any drug. […] 6 fold increase in solicitation and 3 fold increase in copulation for Group B-1 in rats were observed comparing to the control group (Table 15).\n2 mg/kg peptide A and peptide B in 0.2 ml of pH 7.0 phosphate buffer (0.1M) were applied to the back of both male rats (30 rats) and female rats (30 rates) once per day for 5 days. Rats of a control group were not treated with any drug."}, "[2]": {"settings": "male and female rats treated (Groups A-2, B-2)"}, "[3]": {"settings": "male rats treated (Groups A-1, B-1)"}}, "data": [{"molecule": "CSCC[C@H](NC(=O)[C@H](Cc1ccccc1)NC(=O)CNC(=O)CNC(=O)[C@@H](N)Cc1ccc(O)cc1)C(=O)O", "note": "[Met-enkephalin, H-Tyr-Gly-Gly-Phe-Met-OH]", "values": [{"measurement": "apparent flux value", "setting": "[1]", "value": 1, "unit": "μg/cm^2/h"}]}, {"molecule": "Ac-Tyr(Ac)-D-Ala-Gly-Phe-Leu-OCH2CH2N(CH2CH3).HCl", "values": [{"measurement": "rate of writhing inhibition (%)", "setting": "mice", "value": 85, "unit": "%"}, {"measurement": "No. of Writhings", "setting": "mice", "value": 5.2}]}, {"molecule": "H-Val-Pro-Asp-Pro-Arg OH", "values": [{"measurement": "food intake (in words)", "setting": "Osborne-Mendel rats", "value": "dose-dependent reduction in food intake"}]}, {"molecule": "HCl.H-Tyr(Ac)-D-Ala-Gly-Phe-Leu-OCH2(CH2)4—CH3 [B]", "values": [{"measurement": "rate of writhing inhibition (%)", "setting": "mice", "value": 75, "unit": "%"}, {"measurement": "No. of Writhings", "setting": "mice", "value": 8.6}]}, {"molecule": "HCl.H-Tyr(Ac)-D-Ala-Gly-Phe-Met(O)—OL", "values": [{"measurement": "rate of writhing inhibition (%)", "setting": "mice", "value": 91, "unit": "%"}, {"measurement": "No. of Writhings", "setting": "mice", "value": 3.2}]}, {"molecule": "cyclo(1,6)-Ac-Nle-Asp-His-Phe-Arg(diAc)-Trp-Lys-OCH2CH2N(CH2CH3)2.HCl", "values": [{"measurement": "increase in copulation comparing to the control group", "setting": "rats; [2]", "value": 5, "unit": "fold"}, {"measurement": "increase in solicitation comparing to the control group", "setting": "rats; [2]", "value": 6, "unit": "fold"}, {"measurement": "Increased Copulation", "setting": "rats; male and female rats treated", "value": 5}, {"measurement": "Increased Solicitation", "setting": "rats; male and female rats treated", "value": 6}, {"measurement": "increase in copulation comparing to the control group", "setting": "rats; [3]", "value": 3, "unit": "fold"}, {"measurement": "increase in solicitation comparing to the control group", "setting": "rats; [3]", "value": 5, "unit": "fold"}, {"measurement": "Increased Copulation", "setting": "rats; male rats treated", "value": 3}, {"measurement": "Increased Solicitation", "setting": "rats; male rats treated", "value": 5}]}]}
